{"source": "patent US9034906B2", "about": "“EP4 agonist” (Asahi Glass Company, Limited, priority 2008, dated 2015)", "key": {"[1]": {"system": "dextran sodium sulfate-induced colitis", "assay": "Dextran sodium sulfate-induced colitis model in mice (C57BL/6)", "format": "in vivo, mouse", "settings": "C57BL/6 mice, DSS, oral 0.3 mg/kg once a day", "procedure": "Whether or not an IP agonist has an effect on such colitis model was determined using a selective IP agonist, BPS.\nFemale C57BL/6 mice (6 weeks old, Japan SLC) were purchased, acclimated for 1 week and used for the study. Except the normal group, the mice were allowed to freely drink a 3 or 2 w/v % DSS (MP Biochemicals, Lot No. 5653H and 5464H, respectively) solution for 1 week to induce colitis. BPS at a dose of 0.3 mg/kg and compound F at doses of 0.3 and 1 mg/kg were orally administered once a day, daily, from the start day of DSS drinking (day 0) to one day before autopsy (day 9). To the control group was orally administered a solvent (1 vol % ethanol solution) at 10 mL/kg in the same manner. The consistency of the stool was graded from score 0 to 4, with normal (0), partly loose stool (1), loose stool (2) and diarrhea (4). The blood feces was also graded from score 0 to 4, with normal (0), partly blood feces (1), blood feces (2) and blood feces plus proctorrhagia (4). The sum of both grades was defined as the stool score (maximum 8). Furthermore, the length of the large intestine was measured in the same manner as in Example 23. Six to 10 animals were used for each group, and the results are shown in average±standard deviation."}, "[2]": {"assay": "Effect on blood pressure and heart rate in mice", "format": "in vivo, mouse", "settings": "ICR mice, intravenous 0.01 mg/kg, isoflurane anesthesia", "procedure": "Male ICR mice (5 weeks old, Japan SLC) were purchased, acclimated for 6 days and used for the test. The animals were treated and measured under isoflurane inhalation anesthesia (anesthesia introduced at 2.5%, maintained at 1.8-2.1%), while body temperature was kept at 37° C. with a Heat Controller (ATC-402, Unique Medical Co., Ltd.). A catheter for administration of test compounds was inserted into the left femoral vein, and another catheter was inserted into the right femoral artery and connected to a pressure transducer to record each parameter of hemodynamics.\nCompound F, the carboxylate form of compound F and BPS were intravenously administered at a dose of 0.01 mg/5 mL/kg, and the effect on the mean blood pressure and heart rate was evaluated with computer software for the analysis of hemodynamics (Fluclet, Dainippon Sumitomo Pharma Co., Ltd.). To the control group was intravenously administered a solvent (1.2% ethanol solution) at 5 mL/kg in the same manner. The results are expressed as a ratio of change in each parameter before and after the drug administration. Three to 6 animals were used for each group, and the results were expressed as average±standard deviation."}, "[3]": {"system": "anti-Thy-1 antibody-induced glomerulonephritis", "assay": "Anti-Thy-1 antibody-induced glomerulonephritis model in rats", "format": "in vivo, rat", "settings": "Wistar rats, oral 0.3 mg/kg twice a day", "procedure": "Male Slc: Wistar rats (6 weeks old, Japan SLC) were purchased, acclimated for 1 week and used for the study. Except the normal group, anti-Thy-1 antibody (mouse anti-CD90 antibody (UK-Serotech Ltd. Code:MCA47XZ, clone No: MRC OX-7, Lot No. 0303)) was administered once intravenously to the animals. A mixture of compound F and compound J (F:J=52:41, indicated as compound F/J) was orally administered from the day of the antibody administration (day 0) to day 6, daily, twice a day (morning and evening; each 0.3 mg/kg). After 3 days from the antibody administration, urine was collected for one day. On day 7 of the antibody administration, the animal was autopsied. The right kidney was isolated, weighed and fixed with formalin. Five to 8 animals were used for each group and the results were expressed as average±standard deviation."}, "[4]": {"assay": "In vitro metabolic stability: NADPH-independent β oxidation reaction in rat liver mitochondria fraction", "format": "in vitro ADME", "settings": "37° C., 30 min, tested as isomer mixtures, average±SD of 3 experiments", "procedure": "A mixture of the compound F and compound J of the present invention described in Table 1 (F:J=52:41, synthesized in Example 14), and a mixture of compounds wherein the tetrazole groups at C-1 of compound F and compound J are respectively substituted by carboxylic acid (referred to as carboxylate form, F:J=54:34, synthesized in Example 15) were tested.\nFirst, a mitochondria fraction was prepared from the rat liver according to the following Reference A. Then, in reference to the method of […] et al. described in the following References B and C, an NADPH-independent β oxidation reaction was studied. The reaction was carried out at 37° C. for 30 min, and stopped with a methanol solution containing a suitable internal standard substance. Each compound was quantified by the internal standard method using a high performance liquid chromatography mass spectrometry apparatus (LC-MS/MS). The compound residual ratio after metabolic reaction of compounds F, J and each carboxylate form thereof in rat mitochondria fraction is shown in the following Table 2 in average±standard deviation of 3 experiments."}, "[5]": {"target": "T1, human EP4 (Homo sapiens, UniProt P35408)", "T1 construct": "expressed in transfected cells; host or cells: COS-7 (membranes)", "T1 sequence (P35408 whole entry)": "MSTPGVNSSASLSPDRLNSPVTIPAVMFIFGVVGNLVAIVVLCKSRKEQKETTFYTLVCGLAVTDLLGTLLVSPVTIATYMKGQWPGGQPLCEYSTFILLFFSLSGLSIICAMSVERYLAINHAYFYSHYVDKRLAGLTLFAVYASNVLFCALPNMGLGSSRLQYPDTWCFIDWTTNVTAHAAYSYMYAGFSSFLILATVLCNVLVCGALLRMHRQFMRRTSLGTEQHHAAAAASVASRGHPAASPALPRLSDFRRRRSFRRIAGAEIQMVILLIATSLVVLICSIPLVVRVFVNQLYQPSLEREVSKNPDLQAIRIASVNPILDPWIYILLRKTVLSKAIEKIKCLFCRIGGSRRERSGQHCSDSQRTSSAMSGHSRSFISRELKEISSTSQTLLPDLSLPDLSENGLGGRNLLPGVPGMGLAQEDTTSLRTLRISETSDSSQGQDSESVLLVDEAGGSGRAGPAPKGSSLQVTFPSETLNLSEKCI", "assay": "Receptor affinity, tritium-labeled PGE2 binding to membranes of transfected COS-7 cells", "settings": "binding affinity ratio", "procedure": "PG receptor affinity of compound F and compound J of the present invention was evaluated. Compound F used was one synthesized in Example 9, and compound J was prepared by separating and purifying the compound synthesized in Example 14 with a column (the same preparations were used in the following Examples). COS-7 cells were transfected with the genes of mouse EP4, human EP1-4 or human IP to overexpress the receptor and then the cell membranes were collected. […] The dissociation constant Kd value was obtained and inhibition constant Ki value of each test compound was determined in a conventional method."}, "[6]": {"system": "dextran sodium sulfate-induced colitis", "assay": "Remission/relapse model of dextran sodium sulfate-induced colitis in mice, therapeutic", "format": "in vivo, mouse", "settings": "compound F 1 mg/kg, SASP 100 mg/kg, oral once a day for 50 days", "text": "Next, therapeutic effect of compound F on colitis was studied in a chronic model. Female BALB/c mice, 6 weeks old, body weight about 20 g (Japan SLC) were purchased, acclimated for 1 week and used for the study. The mice were divided into a colitis induction group and a normal group. The colitis induction group was allowed to freely drink a 2.6 w/v % DSS (MP Biochemicals, M.W. 36,000-50,000, Lot No. 4556J) solution to induce colitis. On day 8 when the stool score (defined in Example 23) of the colitis induction group reached about 4.5, the mice were subdivided into a control group, a compound F 1 mg/kg administration group and a salazosulfapyridine (SIGMA, Lot No. 085K1930, hereinafter to be abbreviated as SASP) 100 mg/kg administration group. Then the mice were allowed to freely drink distilled water instead of DSS solution for 9 days (remission period). After the grouping, the stool score was evaluated every 3-4 days. […]\nCompound F at a dose of 1 mg/kg and SASP at a dose of 100 mg/kg were orally administered once a day, daily, for 50 days from the initial remission period (day 8 from the start of 2.6 w/v % DSS drinking) to the fifth remission period (day 57 from the start of 2.6 w/v % DSS drinking). […] The remission ratio (%) was calculated as a ratio of mice in remission in each group. […]"}, "[7]": {"system": "concanavalin A-induced hepatitis", "assay": "Concanavalin A-induced hepatitis model in mice, prophylactic", "format": "in vivo, mouse", "settings": "BALB/c mice, oral 1 hr before Con A; compound F 1 mg/10 mL/kg, prednisolone 5 mg/10 mL/kg", "procedure": "The prophylactic effect of compound F on hepatitis was investigated using concanavalin A (hereinafter Con A)-induced hepatitis model.\nBALB/c mice (female, 7 weeks old, Japan SLC) were purchased, acclimated for 1 week and used for the study. Except the no-induction group, Con A (type IV, Sigma-Aldrich) dissolved in saline was administered from the tail vein of the mice at a dose of 12.5 mg/10 mL/kg to induce hepatitis. Twenty hr later, the mice were subjected to laparotomy under ether anesthesia. A 0.5 mL of blood sample was collected from the caudal vena cava and heparinized plasma was obtained to measure plasma ALT and AST activities. Test substances were compound F (1 mg/10 mL solution), prednisolone (Nacalai Tesque, 5 mg/10 mL suspension (with 0.5 w/v % methylcellulose)) and water for injection (administered to the control group), which were orally administered at a volume of 10 mL/kg 1 hr before Con A injection. Seven to 9 animals were used for each group. After logarithmic transformation of the data, one-way analysis of variance was performed for statistical evaluation."}, "[8]": {"system": "T cell transfer colitis", "assay": "CD4+CD25- T cell transfer colitis model in mice", "format": "in vivo, mouse", "settings": "C.B-17/Icr-scid mice, oral 1 mg/kg once a day", "text": "The effect on Crohn's disease, another type of inflammatory bowel disease, was studied. T cell transfer model is well known as a Crohn's disease model, which develops chronic […] or enteritis (see: References F, G, H). In addition, it can also be regarded as an animal model of intestinal Behcet's disease or simple ulcer, suffering from similar intestinal ulcer accompanied by activation of T cells (see: References I, J).\nFemale BALB/cA Jcl mice, 6 weeks old, body weight 19-23 g (CLEA Japan, Inc.) and female C.B-17/Icr-scid mice (6 weeks old, CLEA Japan, Inc.) were purchased, acclimated for 1 week and used for the study.\nAfter laparotomy under ether anesthesia, BALB/cA Jcl mice were exsanguinated to death through the abdominal aorta and caudal vena cava, and the spleen was isolated. Splenocytes were prepared from the spleen and then CD4^+CD25^− T cells were prepared with a CD4^+ T cell Isolation Kit (No. 130-090-860, Milky Biotech Co., Ltd.) and CD25-Biotin antibody (No. 130-092-569, Milky Biotech Co., Ltd.). The cells were separated using the autoMACS Separator (Milky Biotech Co., Ltd.). The separated CD4^+CD25^− T cells were suspended in physiological phosphate buffer solution, and 2.5×10^5 cells per animal were intraperitoneally administered to C.B-17/Icr-scid mice to induce colitis.\nOne mg/kg of compound F or prednisolone was initially administered at 5 hr before transfer of CD4^+CD25^− T cells, and orally administered thereafter once a day, daily, for 20 days. To the control group was orally administered a solvent (1 vol % ethanol solution) at 10 mL/kg. A clinical endpoint was the sum of stool consistency score (0-5), fecal occult blood score (0-4) and body weight decrease score (0-5), termed as the Disease Activity Index score (hereinafter to be abbreviated as DAI score: highest score 14). The stool consistency score was graded for the hardness of stool as normal (0), slightly loose (1), somewhat loose (2), loose (3), considerably loose (4) and diarrhea (5). The fecal occult blood score was evaluated in the same manner as in Example 23. The body weight decrease score was graded for the changes in the body weight as increase (0), decrease of less than 3% (1), decrease of not less than 3% and less than 6% (2), decrease of not less than 6% and less than 9% (3), decrease of not less than 9% and less than 12% (4), and decrease of not less than 12% (5). Eight to 10 mice were used for each group and the results were expressed as average."}}, "data": [{"molecule": "CC#CCC(C)[C@H](O)/C=C/[C@@H]1[C@H]2c3cccc(CCCC(=O)O)c3O[C@H]2C[C@H]1O", "note": "(mixture of isomers) [BPS, beraprost sodium, reference compound]", "values": [{"measurement": "Effect on shortening of the large intestine", "setting": "[1]", "value": "no effect"}, {"measurement": "Effect on stool score", "setting": "[1]", "value": "tendency toward aggravation"}, {"measurement": "Effect on heart rate", "setting": "[2]", "value": "on the increase and remained high even after 10 min"}, {"measurement": "Maximum decrease ratio of mean blood pressure", "setting": "[2]", "value": 38, "unit": "%"}]}, {"molecule": "Cc1cccc(C(C)[C@H](O)/C=C/[C@@H]2[C@@H]3[C@H](C[C@H]2O)O/C(=C\\CCCc2nnn[nH]2)C3(F)F)c1", "note": "(mixture of isomers) [compound F/J, 4-[(Z)-(1S,5R,6R,7R)-6-[(1E,3R,4RS)-3-hydroxy-4-(m-tolyl)-1-pentenyl]-7-hydroxy-2-oxa-4,4-difluoro-bicyclo[3.3.0]octan-3-ylidene]-1-(tetrazol-5-yl)butane]", "values": [{"measurement": "24-hr urine protein", "setting": "[3]", "value": "lower value than control"}, {"measurement": "24-hr urine volume", "setting": "[3]", "value": "of the same level as the normal group"}, {"measurement": "Body weight", "setting": "[3]", "value": "shift similar to that of the control group"}, {"measurement": "Relative kidney weight", "setting": "[3]", "value": "lower than control and near the normal"}, {"measurement": "Renal histopathology: total glomerular cells, mesangial region and PCNA-positive cells in the glomerulus", "setting": "[3]", "value": "significantly suppressed the increase"}]}, {"molecule": "Cc1cccc([C@H](C)[C@H](O)/C=C/[C@@H]2[C@@H]3[C@H](C[C@H]2O)O/C(=C\\CCCc2nnn[nH]2)C3(F)F)c1", "note": "[Compound J, 4-[(Z)-(1S,5R,6R,7R)-6-[(1E,3R,4S)-3-hydroxy-4-(m-tolyl)-1-pentenyl]-7-hydroxy-2-oxa-4,4-difluoro-bicyclo[3.3.0]octan-3-ylidene]-1-(tetrazol-5-yl)butane]", "values": [{"measurement": "Residual ratio of parent compound after β-oxidation reaction", "setting": "[4]", "value": "90.1 ± 6.9", "unit": "%"}, {"measurement": "Affinity for human EP4 higher than to human IP", "setting": "[5]", "value": 40, "unit": "fold"}]}, {"molecule": "O=C(O)c1cc(/N=N/c2ccc(S(=O)(=O)Nc3ccccn3)cc2)ccc1O", "note": "[SASP, salazosulfapyridine, reference compound]", "values": [{"measurement": "Effect on stool score in remission and relapse periods", "setting": "[6]", "value": "did not show a clear effect"}]}, {"molecule": "C[C@]12C=CC(=O)C=C1CC[C@@H]1[C@@H]2[C@@H](O)C[C@@]2(C)[C@H]1CC[C@]2(O)C(=O)CO", "note": "[prednisolone, reference compound]", "values": [{"measurement": "Effect on increase of plasma ALT and plasma AST activities", "setting": "[7]", "value": "significantly and strongly suppressed the increase"}, {"measurement": "Effect on body weight decrease score", "setting": "[8]", "value": "clearly worsened the score"}, {"measurement": "Effect on fecal occult blood score", "setting": "[8]", "value": "suppressed an increase in the fecal occult blood score by almost the same level as the compound F administration"}, {"measurement": "Effect on stool consistency score", "setting": "[8]", "value": "failed to show a clear effect"}]}]}
